Results from patent publication US20050245537A1, “Use of compounds having ccr antagonism” (priority 2002, published 2005).

Test system: Mouse Skin Graft Rejection Model
Assay: Mouse skin graft rejection model
Format: in vivo
Text: Effects of a Compound with Respect to a Mouse Skin Graft Rejection Model

Cc1ccc(-c2ccc3c(c2)C=C(C(=O)Nc2ccc(C[N+](C)(C)C4CCOCC4)cc2)CCC3)cc1.[Cl-] [N,N-dimethyl-N-(4-[[[2-(4-methylphenyl)-6,7-dihydro-5H-benzocyclohepten-8-yl]carbonyl]amino]benzyl]tetrahydro-2H-pyran-4-ammonium chloride]
graft rejection suppression effect (10 mg/kg subdermally once a day, P<0.05 vs. control, log-rank test): significant | number of days of skin graft life (donor mouse B6-CH-2^bm12 abdominal skin grafted onto recipient mouse (B6/129), 10 mg/kg subdermally once a day from the day of grafting, n=7, control group 13.0±2.8 days (n=6)): 19.6 ± 4.4 days
